# Test results: patent US20160318856A1, “Substituted Urea eIF2alpha Kinase Activators” (THE BRIGHAM AND WOMEN'S HOSPITAL, INC., priority 2013, published 2016)
# Like-named read-outs stand apart in the source and are kept apart here.
# Columns and labels:
# [1] = system: eIF2α phosphorylation (eIF2•GTP•Met-tRNAi ternary complex; HRI activation); test: surrogate dual luciferase eIF2α phosphorylation (ternary complex) assay; format: cell-based, human; settings: for maximal fold induction: Homo sapiens, surrogate eIF2α phosphorylation assay, Table 4, read-out: Emax (F/R)
# Description: The dual luciferase expression vector and other plasmids used for these studies were previously described (see, for example, Ziegeler, G. et al. Journal of Biological Chemistry 2010, 285(20), 15408-19). The ternary complex assay, surrogate of eIF2α phosphorylation, has been described elsewhere (see, for example, Chen, T. et al. Nature Chemical Biology 2011, 7(9), 610-6). Briefly, the pBISA vector, which contains seven copies of the tetracycline-regulated transactivator response element (TRE), is flanked on both sides by minimal human cytomegalovirus (CMV) minimal promoters allowing bi-directional transcription and two MCSs (multiple cloning sites). Firefly and renilla luciferases were subcloned into MCS-I and MCS-II, respectively. This plasmid, designated pBISA-DL, transcribes two mRNAs that contain the 90 nucleotide plasmid derived 5′UTR (same sequence in both mRNAs), and the ORF encoding either firefly or renilla luciferase followed by a polyadenylation sequence. This plasmid was further modified by inserting the 5′UTR of ATF-4 mRNA into MCS-I in front of the firefly luciferase mRNA. Transcription from this unit generates an mRNA that contains the firefly luciferase ORF preceded by a 5′UTR composed of 90 nucleotides derived from the plasmid and 267 nucleotides derived from the 5′UTR of ATF-4 mRNA. Transcription from the other unit generates an mRNA that contains the renilla luciferase ORF proceeded only by the 90-nucleotide plasmid-derived sequence in the 5′UTR (pBISA-DL (ATF-4)) (see, for example, Chen, T. et al. Nature Chemical Biology 2011, 7(9), 610-6).
# Cells expressing firefly and renilla luciferases were assayed with a dual glow luciferase assay kit, per manufacturer's instruction (Promega Inc., Madison, Wis.). The data calculations were carried out as the ratio of firefly to renilla luciferase signal.
# A library of 1900 urea compounds was screened in the surrogate dual luciferase eIF2α phosphorylation (ternary complex) assay. This library was originally assembled and screened for inhibition of sEH by Hammock's group at UC-Davis (see, for example, Chen, T. et al. Nature Chem Biol 2011, 7, 610-616; Ziegeler, G et al. J Biol Chem 2010, 285, 15408-15419). We developed this assay in order to identify compounds that activate HRI, taking advantage of the fact that activated HRI phosphorylates eIF2α thereby reducing the amount of the eIF2•GTP•Met-tRNAi ternary complex that results in inhibition of translation of many mRNAs but paradoxically increases translation of some mRNAs that contain multiple upstream ORF (uORF) in their 5′ untranslated regions (UTRs). In our assay, firefly (F) luciferase mRNA is fused to 5′UTR of activating transcription factor 4 (ATF-4) mRNA that has multiple uORFs while renilla (R) luciferase mRNA is fused to a 5′UTR lacking any uORFs. Compounds that reduce the amount of the ternary complex, such as those activating HRI, would increase F luciferase expression while decreasing the R luciferase expression, resulting in an increased F/R luciferase ratio. To calculate the activity scores, the F/R ratios for every compound-treated wells were normalized to vehicle-treated (DMSO) wells that was arbitrarily set at 1 (F/R=1).
# [2] = system: CRL-2813 human melanoma cancer cells; test: cell proliferation (SRB) assay, CRL-2813; format: cell-based; settings: cell proliferation assay, cell line not named, read-out: IC50
# Protocol: Cells were seeded in 96-well plates and maintained for 5 days in the presence of 0.5 to 20 μM of individual compound, and cell proliferation was measured by the sulforhodamine B (SRB) assay as described previously (see, for example, Palakurthi, S. S. et al. Cancer Research 2000, 60(11), 2919-2925). Briefly, at the end of a 5-day treatment, cells were fixed in 10% cold trichloroacetic acid. Cell number was estimated by measuring the remaining bound dye of sulforhodamine B after washing. The percentage of growth was calculated by using the equation: 100×[(T−T0)/(C−T0)], where T and C represent the absorbance in treated and control cultures at Day 5, and T0 at time zero, respectively. If T is less than T0, cell death has occurred and can be calculated from 100×[(T−T0)/T0].
SMILES,Emax (F/R) ([1]; 7.5 μM compound),Emax (F/R) ([1]; 15 μM compound),Emax (F/R) ([1]; 30 μM compound),IC50 ([2]; Table 2) [µM],maximal fold induction [1],"IC50 ([2]; Homo sapiens, CRL2813, Table 4) [µM]"
Cc1ccccc1NC(=O)N[C@H]1CC[C@H](OCc2c(F)cccc2F)CC1 [II-7o],0.78,0.79,0.83,> 20,–,–
Cc1ccc(NC(=O)N[C@H]2CC[C@H](OCc3c(F)cccc3F)CC2)cc1 [II-7p],0.81,0.81,0.77,> 20,–,–
COc1cccc(NC(=O)N[C@H]2CC[C@H](OCc3c(F)cccc3F)CC2)c1 [II-8m],0.84,0.97,0.74,> 20,–,–
COc1ccccc1NC(=O)N[C@H]1CC[C@H](OCc2c(F)cccc2F)CC1 [II-8o],0.94,0.88,0.84,> 20,–,–
COc1ccc(NC(=O)N[C@H]2CC[C@H](OCc3c(F)cccc3F)CC2)cc1 [II-8p],0.74,0.71,0.68,> 20,–,–
O=C(Nc1cccc([N+](=O)[O-])c1)N[C@H]1CC[C@H](OCc2c(F)cccc2F)CC1 [II-9m],0.96,0.76,0.94,> 20,–,–
O=C(Nc1ccccc1[N+](=O)[O-])N[C@H]1CC[C@H](OCc2c(F)cccc2F)CC1 [II-9o],0.96,0.90,0.74,> 20,–,–
O=C(Nc1ccc([N+](=O)[O-])cc1)N[C@H]1CC[C@H](OCc2c(F)cccc2F)CC1 [II-9p],0.87,0.83,0.83,> 20,–,–
CSc1cccc(NC(=O)N[C@H]2CC[C@H](OCc3c(F)cccc3F)CC2)c1 [II-10m],1.01,0.73,1.06,> 20,–,–
CSc1ccccc1NC(=O)N[C@H]1CC[C@H](OCc2c(F)cccc2F)CC1 [II-10o],0.82,0.90,0.83,> 20,–,–
CSc1ccc(NC(=O)N[C@H]2CC[C@H](OCc3c(F)cccc3F)CC2)cc1 [II-10p],0.94,0.98,1.07,> 20,–,–
O=C(Nc1ccccc1)N[C@H]1CC[C@H](OCc2c(F)cccc2F)CC1 [II-11],0.89,0.88,0.81,> 20,–,–
"O=C(Nc1cccc(C(F)(F)F)c1)NC1CCCCC1 [III-1, 1-Cyclohexyl-3-(3-(trifluoromethyl)phenyl)urea]",–,–,–,–,1.87,13.2 ± 2.3
"O=C(Nc1cccc(C(F)(F)F)c1)NC1CCC(O)CC1 (centres unmarked) [III-2, 1-(4-Hydroxycyclohexyl)-3-(3-(trifluoromethyl)phenyl)urea]",–,–,–,–,0.89,> 20
"COC1CCC(NC(=O)Nc2cccc(C(F)(F)F)c2)CC1 (centres unmarked) [III-3, 1-(4-Methoxycyclohexyl)-3-(3-(trifluoromethyl)phenyl)urea]",–,–,–,–,1.16,> 20
"O=C(Nc1cccc(C(F)(F)F)c1)NC1CCCC(Oc2ccc(C(F)(F)F)cc2)C1 (centres unmarked) [III-6, 1-(3-(4-(Trifluoromethyl)phenoxy)cyclohexyl)-3-(3-(trifluoromethyl)phenyl)urea]",–,–,–,–,4.52,3.8 ± 1.2
